Measurements from patent publication US11332483B2, “Naphthoquinone containing gold carbene complexes and methods of uses thereof” (BOARD OF REGENTS, THE UNIVERSITY OF TEXAS SYSTEM, priority 2017, dated 2022).

Legend:
[1] = test system: 2780CP ovarian (multi-drug resistant); assay: Cell proliferation (MTT) assay in 2780CP ovarian cells; type: cell-based; details: Table 3; error is standard error of the mean
Protocol: Further anti-proliferation studies were carried out with complex 1 and its naphthoquinone component 4[H][Cl] using the following cell lines: A2780 ovarian (a wt-p53 cell line sensitive to platinum treatment), 2780CP ovarian (isogenic to A2780 but expressing multi-drug resistance (MDR)), and PC-3 prostate (p53 null) (Table 3).
Cells were harvested and seeded into 96-well culture plates (Costar 07-200-90) in 100 μL of culture media. They were allowed to incubate overnight at 37° C. in the presence of 5% CO2. A549 was seeded at a density of 1000 cells/well, A2780 at 2500 cells/well, A2780CP at 3000 cells/well, and PC-3 at 2000 cells/well. The next day, appropriate serial dilutions of drug stocks in culture media were made. To each well of a 96 well plate was added 100 μL of the appropriate solution. After a total of three days, a […] aliquot of 3 mg/mL tetrazolium dye, 344,5-dimethylthiazol-2-yl)-2,5-diphenyltetrazolium bromide (Alfa Aesar L11939) was added to each well, followed by a 4 hr incubation period at 37° C. The medium was then removed, the resulting formazan was dissolved in […] DMSO and the respective absorbances were measured at 560-650 nm using a microplate reader (Molecular Devices, Sunnyvale, Calif.). Absorbance values were corrected for background and then normalized to wells containing untreated cells to allow for plate-to-plate comparisons. […]

[2] = Electrochemical analysis (differential pulse voltammetry) in DMSO; type: physicochemical; details: 0.1M [N(nBu)4][PF6], 0.1 mM analyte, vs SCE
Protocol: [Cl] (Guth et al., 2011; Gómez et al., 2003).
1,3-Dimesitylnapthoquinimidazolium chloride (Sanderson et al., 2006; Tennyson et al., 2010), (1,3-dimesityl-4,5-naphthoquino-imidazol-2-ylidene)-silver(I) chloride (Sanderson et al., 2006; Tennyson et al., 2010), (C4H2S)AuCl (Hashmi, et al., 2010) were prepared according to the literature procedures. All other reagents were purchased from commercial sources and used as received, including: [((CH3)3Si)2N]Na (NaHMDS) and silver(I) oxide. CD2Cl2 (99.9%) was purchased from Acros Laboratories in glass ampules and used as received. Solvents were either dried with a solvent purification system from the Inert Innovative Technology, Inc. (dichloromethane, diethyl ether, hexanes, tetrahydrofuran and toluene) or freshly distilled over 3 Å molecular sieves and degassed using three consecutive freeze-pump-thaw cycles prior to use. UV-vis spectra were obtained at ambient temperature with a Hewlett-Packard 8452A diode array spectrophotometer with molar absorptivities reported in M^−1 cm^−1. ^1H and ^13C NMR spectra were recorded on Bruker 300 MHz spectrometer. Spectra were referenced to the residual solvent as an internal standard, for ^1H NMR: CD2Cl2, 5.32 ppm and ^13C NMR: CD2Cl2, 53.84 ppm. High-resolution mass spectra (HRMS) were obtained with an Agilent Technologies 6530 Accurate Mass Q-TOF LC/MS (ESI) and are reported as m/z (relative intensity). Electroanalytical measurements were performed on a CHI620E electrochemical workstation using a silver wire quasi-reference electrode, a platinum disk working electrode and a Pt wire auxiliary electrode in a three-electrode cell under an atmosphere of nitrogen. […] All potentials listed herein were determined by differential pulse voltammetry and referenced to a saturated calomel electrode (SCE) by shifting ferrocene^0/+ to 0.435 V (DMSO) (Aranzaes et al., 2006). Spectroelectrochemistry measurements were obtained at ambient temperature with a custom designed three-electrode cell using Hewlett-Packard 8452A diode array spectrophotometer and CHI620E. Elemental analyses were performed by Midwest Microlab, LLC in Indianapolis, Ind. […] Trypsin (Hyclone SH30236.01) and Dulbecco's Phosphate Buffer Saline (Sigma R5886) were used for general cell maintenance and harvesting. Cell lines were obtained from the ATCC (A549 and PC-3) and Prof. Zahid Siddik at MD Anderson (A2780 and A2780CP). Thiazolyl blue tetrazolium bromide (Alfa Aesar L11939) was used for cell proliferation assays. Cell culture plastic ware consisted of generic T-75 flasks, 80.5 mm diameter culture dishes, and treated 96-well plates.

[3] = test system: fetal bovine serum proteins
Protocol: To assess potential drug protein interactions, samples of fetal bovine serum (FBS) were treated with 25 μM 1, 3, and auranofin prior to incubating at 37° C. Aliquots were taken and the free Au (non-protein bound, methanolic extracts) content was analyzed by ICP-MS (FIG. 3B).
A 25 μM solution of each compound in 3 mL warm FBS was made. The solutions were kept at 37° C. Over time, 100 μL aliquots of each solution were taken and precipitated into 400 μL cold methanol. Precipitated aliquots were stored at −80° C. The methanolic suspensions were then centrifuged at 11,000 rcf for 5 min in an Edvotek microcentrifuge. The supernatants were pipetted into new microcentrifuge tubes. Samples were prepared for ICP-MS by adding 200 μL supernatant from each sample to 2 mL 3% Trace Metal Grade HCl. Time points were at addition of compound (T0), 4, 6.25, 9.75, 12, 24, 48, 72, and 100 h.

## Cc1cc(C)c(-n2c3c([n+](-c4c(C)cc(C)cc4C)[c]2[Au-][c]2n(-c4c(C)cc(C)cc4C)c4c([n+]2-c2c(C)cc(C)cc2C)C(=O)c2ccccc2C4=O)C(=O)c2ccccc2C3=O)c(C)c1.[Cl][Ag-][Cl] [Compound 1, [Bis(1,3-dimesityl-4,5-naphthoquino-imidazol-2-ylidene)-gold(I)] [Silver(I)dichloride]]
[1]
  IC50: 54 ± 6 nM
[2]
  E1/2 (V) DPV, first reduction, formation of semiquinone radical: −0.42 V
  E1/2^b (V) DPV, second reduction, formation of quinone dianion: −1.31 V
[3]
  free Au (non-protein bound) content as a function of time: minimal changes in the free Au levels
